The results in this text go back to publication PMC9020739, “Identification of a two-component regulatory system involved in antimicrobial peptide resistance in Streptococcus pneumoniae” (PLoS Pathogens, 2022).

The subject of the test is S. pneumoniae R6 WT and mutant strains. As to the kind of experiment: Susceptibility to HNP-1 (colony counts). The test is classed as cell-based, Streptococcus pneumoniae. The settings on record: R6 WT versus mutant strains, 5, 10 or 20 μg/ml, 30 min, 1 h or 2 h, 37°C, preliminary work (S7 Fig). The method, then: Bacterial cells were routinely grown until OD600nm = 0.3 in THY and 5 mL of culture were centrifuged for 10 min at 5,000 g at 4°C. The pellet was resuspended in 5 ml of sterile PBS buffer and diluted twice at 1/100. 200 μl of the final dilution was incubated for 30 min, 1 h or 2 h at 37°C, 5% CO2 in 96-well plate with 5, 10 or 20 μg/ml of hNP1. Next, 10 μl from the final dilution (control cells at time zero in the absence of HNP-1) and the 96-well plate (cells incubated with HNP1) were plated onto pre-cast THY-agar medium supplemented with 4% defibrinated horse blood and incubated overnight at 37°C, […]. The next day, colonies were counted.

For the substance “HNP1: human neutrophil defensin HNP1; purchased from Vivitide”, the “Resistance promoted by BceAB” value is on record as “does not promote resistance”.
